Like-named read-outs stand apart in the source and are kept apart here.
Columns and labels:
[1] = system: phenobarbitone antiserum R-66X; test: Phenobarbitone RIA with solvent extraction (Example 6); type: binding; conditions: mean of duplicates; for % B/Bo MIBK: methyl isobutyl ketone; for % B/Bo TBME: tert-butyl methyl ether
Protocol: The components used for a phenobarbitone RIA were a (^3 H) phenobarbitone tracer (N.E.N), a phenobarbitone antiserum R-66X (Technion) and tris-maleate assay buffer (pH 7.3, 0.078M Tris, 0.035M maleic acid) containing 0.1% PVP (polyvinyl pyrrolidone).
The tracrer, 100 μl (approx. 10 nono Ci/tube) was added to test-tubes followed by the addition of 50 μl phenobarbitone standards and 100 μl of diluted antiserum. All test-tubes were incubated overnight at 4° C. After incubation, 0.5 ml of solvent (tert-butyl methyl ether, TBME in one experiment and, MIBK in a parallel experiment) were added to each assay tube and vortexed for 20-30 seconds. After phase separation on standing, the aqueous phase was transferred to scintillation vials for radioactivity determination. The following Table 4, summarizes mean values (of duplicates) expressed as % B/Bo.

[2] = type: physicochemical; conditions: for % Estriol extracted, Tracer only: ^125I estriol, no unlabelled estriol; for % Estriol extracted, with 250 ng/ml: with 250 ng/ml unlabelled estriol
Description: The choice of the preferred solvent for each system is made by carrying out a simple experiment in each case as illustrated hereinafter.

[3] = cited from earlier work
RIA kit for estradiol = test: Estradiol 17β (^3H) RIA, kit protocol vs solvent extraction (Example 5); type: binding; conditions: for % B/Bo Expt. A (kit): kit protocol; for % B/Bo Expt. B (solvent extn.): solvent extraction
Protocol: A commercially available (^3 H) RIA kit for estradiol supplied by Isopac was tested by the solvent extraction method as follows:
All kit components were prepared according to kit directions. One experiment (A) was carried out exactly according to the kit protocol. A second, parallel experiment (B) was performed according to kit protocol up to, and including, the incubation step. […] After phase separation (about 10 minutes) the upper solvent phase, containing the free estradiol, was transferred to scintillation vials to which 5 ml of scintillation liquid (Instagel II, trademark of Packard) were added and the radioactivity determined.

[4] = system: anti-THC antiserum, R-41Va; test: THC RIA with solvent extraction or charcoal separation (Example 7); type: binding; conditions: for % B/Bo Charcoal: dextran-coated charcoal
Protocol: An assay using the solvent extraction method was developed for tetrahydrocannabinol (THC) metabolites using a (^3 H)-THC tracer (Amersham). All assay components were prepared in tris-maleate buffer (pH 7.3) containing 0.2% PVP and 0.1% Triton X450 (trademark of Rohm and Haas). […]. The solvent, 500 μl, was added to the assay tubes and vortexed for 20-30 seconds. […]. The following Table 5 summarizes the results, expressed as % B/Bo for the three experiments.

SMILES: CCC1(c2ccccc2)C(=O)NC(=O)NC1=O [Phenobarbitone, phenobarbitone]
- % B/Bo MIBK ([1]; standard 5 ng/ml): 73.0%
- % B/Bo TBME ([1]; standard 5 ng/ml): 96.5%
- % B/Bo MIBK ([1]; standard 10 ng/ml): 63.0%
- % B/Bo TBME ([1]; standard 10 ng/ml): 79.0%
- % B/Bo MIBK ([1]; standard 25 ng/ml): 45.0%
- % B/Bo TBME ([1]; standard 25 ng/ml): 52.0%
- % B/Bo MIBK ([1]; standard 50 ng/ml): 30.0%
- % B/Bo TBME ([1]; standard 50 ng/ml): 30.0%
- % B/Bo MIBK ([1]; standard 100 ng/ml): 19.0%
- % B/Bo TBME ([1]; standard 100 ng/ml): 23.0%

SMILES: CC(=O)CC(C)C [Methyl isobutyl ketone, methyl isobutyl ketone]
- % Estriol extracted, Tracer only [2]: 91-94%
- % Estriol extracted, with 250 ng/ml [2]: 90-94%
- % solubility in water ([3]; in water): 1.9%

SMILES: CCOC(C)=O [Ethyl acetate, ethyl acetate]
- % Estriol extracted, Tracer only [2]: 90-94%
- % Estriol extracted, with 250 ng/ml [2]: 90-92%
- % solubility in water ([3]; in water): 3.3%

SMILES: ClCCl [Dichloromethane, dichloromethane]
- % Estriol extracted, Tracer only [2]: 45-47%
- % solubility in water ([3]; water): 2%

SMILES: ClC(Cl)(Cl)Cl [Carbon tetrachloride, carbon tetrachloride]
- % Estriol extracted, Tracer only [2]: 35-38%
- % Estriol extracted, with 250 ng/ml [2]: 38-40%
- % solubility in water ([3]; in water): 0.08%

SMILES: C[C@]12CC[C@@H]3c4ccc(O)cc4CC[C@H]3[C@@H]1CC[C@@H]2O [Estradiol, Estradiol 17β]
- % B/Bo Expt. A (kit) (RIA kit for estradiol; standard 25.0 pg/ml): 89.0%
- % B/Bo Expt. B (solvent extn.) (RIA kit for estradiol; standard 25.0 pg/ml): 89.0%
- % B/Bo Expt. A (kit) (RIA kit for estradiol; standard 50.0 pg/ml): 85.0%
- % B/Bo Expt. B (solvent extn.) (RIA kit for estradiol; standard 50.0 pg/ml): 76.0%
- % B/Bo Expt. A (kit) (RIA kit for estradiol; standard 100.0 pg/ml): 59.0%
- % B/Bo Expt. B (solvent extn.) (RIA kit for estradiol; standard 100.0 pg/ml): 40.0%
- % B/Bo Expt. A (kit) (RIA kit for estradiol; standard 200.0 pg/ml): 40.0%
- % B/Bo Expt. B (solvent extn.) (RIA kit for estradiol; standard 200.0 pg/ml): 23.0%
- % B/Bo Expt. A (kit) (RIA kit for estradiol; standard 400.0 pg/ml): 21.0%
- % B/Bo Expt. B (solvent extn.) (RIA kit for estradiol; standard 400.0 pg/ml): 14.0%

SMILES: ClCc1ccccc1 [Benzyl chloride]
- % Estriol extracted, Tracer only [2]: 78-80%
- % Estriol extracted, with 250 ng/ml [2]: 76-78%
- % solubility in water ([3]; in water): 0.05%

SMILES: CCN(CC)CC [Triethyl amine]
- % Estriol extracted, Tracer only [2]: 86-91%
- % Estriol extracted, with 250 ng/ml [2]: 86-90%

SMILES: CCCCCc1cc(O)c2c(c1)OC(C)(C)[C@@H]1CCC(C)=C[C@@H]21 [THC, tetrahydrocannabinol]
- % B/Bo MIBK ([4]; standard 1 ng/ml): 98%
- % B/Bo Charcoal ([4]; standard 1 ng/ml): 98%
- % B/Bo t-amyl alcohol ([4]; standard 1 ng/ml): 90%
- % B/Bo MIBK ([4]; standard 2 ng/ml): 84%
- % B/Bo t-amyl alcohol ([4]; standard 2 ng/ml): 86%
- % B/Bo MIBK ([4]; standard 4 ng/ml): 68%
- % B/Bo Charcoal ([4]; standard 4 ng/ml): 86%
- % B/Bo t-amyl alcohol ([4]; standard 4 ng/ml): 77%
- % B/Bo MIBK ([4]; standard 10 ng/ml): 30%
- % B/Bo Charcoal ([4]; standard 10 ng/ml): 55%
- % B/Bo t-amyl alcohol ([4]; standard 10 ng/ml): 36%
- % B/Bo MIBK ([4]; standard 20 ng/ml): 18%
- % B/Bo Charcoal ([4]; standard 20 ng/ml): 32%
- % B/Bo t-amyl alcohol ([4]; standard 20 ng/ml): 15%
- % B/Bo MIBK ([4]; standard 40 ng/ml): 8%
- % B/Bo Charcoal ([4]; standard 40 ng/ml): 21%
- % B/Bo t-amyl alcohol ([4]; standard 40 ng/ml): 6%

— patent publication US4645747A, “Specific binding assay technique” (priority 1979, dated 1987)
